22 molecules from patent publication US9303016B2, “Derivatives of aza adamantane and uses thereof” (CONNEXIOS LIFE SCIENCES PVT. LTD., priority 2011, dated 2016) can be followed below.

A word on the IC50: it is the concentration that inhibits the measured activity by half.

In the assay the target is T1, human full length HSD11β1 (Homo sapiens, UniProt P28845).
T1 construct: transient expression of human full length HSD11β1 expression vector; host or cells: CHO cells, transient transfection
Put plainly: In Vitro HSD11β1 Inhibition Assay. Conditions: CHO cells transiently expressing human HSD11β1; 200 nM cortisone+500 uM NADPH overnight; cortisone to cortisol by LC/MS-MS; read-out: 11βHSD1 (IC50). Format: cell-based. On the procedure:
In Vitro HSD11β1 Inhibition Assay:
CHO cells were maintained in Dulbecco's modified Eagle's medium/nutrient mixture F-12 containing 5% fetal bovine serum (v/v) and 2 mM glutamine. Cells were cultured at 37° C. with 5% CO2. For transient expression of human full length HSD11β1 expression vector (OriGene Technologies), cells were seeded at a density of 2×10^5 cells/well in a 6-well plate. Transfection was done using Turbofectin8 reagent (OriGene Technologies), according to the protocol provided with the reagent. After 24 hours post-transfection, cells were trypsinized and pooled together before they were re-seeding to 96-well plate at a density of 40000 cells/well. 24 hours after re-seeding, cells were incubated with 200 nM cortisone+500 uM NADPH (or along with small molecule inhibitors) overnight. The enzymatic activity or inhibition of enzyme activity was measured by estimating the conversion of cortisone to cortisol by LC/MS-MS method. The IC50 in nM was calculated from a 8 point log scale of concentration versus inhibition.

T1 sequence (P28845 whole entry): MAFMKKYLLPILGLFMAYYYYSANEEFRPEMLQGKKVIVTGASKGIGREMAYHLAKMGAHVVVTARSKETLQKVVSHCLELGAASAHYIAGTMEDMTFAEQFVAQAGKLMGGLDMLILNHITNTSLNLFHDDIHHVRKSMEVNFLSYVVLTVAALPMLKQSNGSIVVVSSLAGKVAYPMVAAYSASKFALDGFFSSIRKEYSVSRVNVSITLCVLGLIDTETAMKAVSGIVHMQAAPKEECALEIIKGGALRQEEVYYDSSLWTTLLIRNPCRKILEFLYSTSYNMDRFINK

On to `O=C(CC(c1ccc(F)cc1)c1c[nH]c2ccccc12)N1C2CC3CC1CC(O)(C3)C2` (single isomer, unassigned) [Compound 81, 3-(4-fluorophenyl)-1-(5-hydroxy-2-azatricyclo[3.3.1.1^3,7]dec-2-yl)-3-(1H-indol-3-yl)propan-1-one], for which the IC50 was over 250 nM.
In the case of `CC(CC(=O)N1C2CC3CC1CC(O)(C3)C2)c1c[nH]c2cc(F)ccc12` (single isomer, unassigned) [Compound 97, 3-(6-fluoro-1H-indol-3-yl)-1-(5-hydroxy-2-azatricyclo[3.3.1.1^3,7]dec-2-yl)butan-1-one] it was over 250 nM; in that of `CC(CC(=O)N1C2CC3CC1CC(O)(C3)C2)c1c[nH]c2cc(F)ccc12` (single isomer, unassigned) [Compound 98, 3-(6-fluoro-1H-indol-3-yl)-1-(5-hydroxy-2-azatricyclo[3.3.1.1^3,7]dec-2-yl)butan-1-one], under 100 nM; in that of `CC(CC(=O)N1C2CC3CC1CC(O)(C3)C2)c1c[nH]c2cccc(C3CC3)c12` (single isomer, unassigned) [Compound 102, 3-(4-cyclopropyl-1H-indol-3-yl)-1-(5-hydroxy-2-azatricyclo[3.3.1.1^3,7]dec-2-yl)butan-1-one], under 100 nM.
Under `CC(CC(=O)N1C2CC3CC1CC(O)(C3)C2)c1c[nH]c2cccc(C3CC3)c12` (single isomer, unassigned) [Compound 103, 3-(4-cyclopropyl-1H-indol-3-yl)-1-(5-hydroxy-2-azatricyclo[3.3.1.1^3,7]dec-2-yl)butan-1-one] stands over 250 nM.
In the case of `CC(CC(=O)N1C2CC3CC1CC(O)(C3)C2)c1nc2ccccc2s1` (single isomer, unassigned) [Compound 115, 3-(1,3-benzothiazol-2-yl)-1-(5-hydroxy-2-azatricyclo[3.3.1.1^3,7]dec-2-yl)butan-1-one] it was 200 to 250 nM; in that of `CC(CC(=O)N1C2CC3CC1CC(C#N)(C3)C2)c1nc2c(Cl)cccc2s1` (single isomer, unassigned) [Compound 124, 2-[3-(4-chloro-1,3-benzothiazol-2-yl)butanoyl]-2-azatricyclo[3.3.1.1^3,7]decane-5-carbonitrile], over 250 nM.
Consider `CC(CC(=O)N1C2CC3CC1CC(C#N)(C3)C2)c1nc2c(Cl)cccc2s1` (single isomer, unassigned) [Compound 125, 2-[3-(4-chloro-1,3-benzothiazol-2-yl)butanoyl]-2-azatricyclo[3.3.1.1^3,7]decane-5-carbonitrile], for which the IC50 was over 250 nM.
Under `COc1cc2c(C(C)CC(=O)N3C4CC5CC3CC(O)(C5)C4)c[nH]c2cc1Cl` (single isomer, unassigned) [Compound 129, 3-(6-chloro-5-methoxy-1H-indol-3-yl)-1-(5-hydroxy-2-azatricyclo[3.3.1.1^3,7]dec-2-yl)butan-1-one] stands over 250 nM; under `COc1cc2c(C(C)CC(=O)N3C4CC5CC3CC(O)(C5)C4)c[nH]c2cc1Cl` (single isomer, unassigned) [Compound 130, 3-(6-chloro-5-methoxy-1H-indol-3-yl)-1-(5-hydroxy-2-azatricyclo[3.3.1.1^3,7]dec-2-yl)butan-1-one], under 100 nM; under `O=C(CC(c1ccccc1)c1c[nH]c2cc(Cl)ccc12)N1C2CC3CC1CC(C(=O)O)(C3)C2` (single isomer, unassigned) [Compound 141, 2-[3-(6-chloro-1H-indol-3-yl)-3-phenylpropanoyl]-2-azatricyclo[3.3.1.1^3,7]decane-5-carboxylic acid], 100 to 150 nM.
As for `Cc1c(F)ccc2[nH]cc(C(C)CC(=O)N3C4CC5CC3CC(O)(C5)C4)c12` (single isomer, unassigned) [Compound 147, 3-(5-fluoro-4-methyl-1H-indol-3-yl)-1-(5-hydroxy-2-azatricyclo[3.3.1.1^3,7]dec-2-yl)butan-1-one], the IC50 was in the range of 100 to 150 nM.
Under `Cc1c(F)ccc2[nH]cc(C(C)CC(=O)N3C4CC5CC3CC(O)(C5)C4)c12` (single isomer, unassigned) [Compound 148, 3-(5-fluoro-4-methyl-1H-indol-3-yl)-1-(5-hydroxy-2-azatricyclo[3.3.1.1^3,7]dec-2-yl)butan-1-one] stands under 100 nM; under `CC(CC(=O)N1C2CC3CC1CC(CC(=O)O)(C3)C2)c1c[nH]c2cccc(C3CC3)c12` (single isomer, unassigned) [Compound 155, {2-[3-(4-cyclopropyl-1H-indol-3-yl)butanoyl]-2-azatricyclo[3.3.1.1^3,7]dec-5-yl}acetic acid], 100 to 150 nM.
Take `CC(CC(=O)N1C2CC3CC1CC(CC(=O)O)(C3)C2)c1c[nH]c2cccc(C3CC3)c12` (single isomer, unassigned) [Compound 156, {2-[3-(4-cyclopropyl-1H-indol-3-yl)butanoyl]-2-azatricyclo[3.3.1.1^3,7]dec-5-yl}acetic acid]: the IC50 is over 250 nM.
In the case of `CC(CC(=O)N1C2CC3CC1CC(O)(C3)C2)c1c[nH]c2ccc(F)c(C3CC3)c12` (single isomer, unassigned) [Compound 158, 3-(4-cyclopropyl-5-fluoro-1H-indol-3-yl)-1-(5-hydroxy-2-azatricyclo[3.3.1.1^3,7]dec-2-yl)butan-1-one] it was over 250 nM; in that of `Cc1ccc2[nH]cc(C(C)CC(=O)N3C4CC5CC3CC(O)(C5)C4)c2c1C` (single isomer, unassigned) [Compound 169, 3-(4,5-dimethyl-1H-indol-3-yl)-1-(5-hydroxy-2-azatricyclo[3.3.1.1^3,7]dec-2-yl)butan-1-one], under 100 nM; in that of `CC(CC(=O)N1C2CC3CC1CC(O)(C3)C2)c1c[nH]c2ccc(Cl)c(Cl)c12` (single isomer, unassigned) [Compound 172, 3-(4,5-dichloro-1H-indol-3-yl)-1-(5-hydroxy-2-azatricyclo[3.3.1.1^3,7]dec-2-yl)butan-1-one], over 250 nM.
Consider `Cc1ccc2[nH]cc(C(C)CC(=O)N3C4CC5CC3CC(O)(C5)C4)c2c1Cl` (single isomer, unassigned) [Compound 174, 3-(4-chloro-5-methyl-1H-indol-3-yl)-1-(5-hydroxy-2-azatricyclo[3.3.1.1^3,7]dec-2-yl)butan-1-one], for which the IC50 is over 250 nM.
Under `Cc1ccc2[nH]cc(C(C)CC(=O)N3C4CC5CC3CC(O)(C5)C4)c2c1Cl` (single isomer, unassigned) [Compound 175, 3-(4-chloro-5-methyl-1H-indol-3-yl)-1-(5-hydroxy-2-azatricyclo[3.3.1.1^3,7]dec-2-yl)butan-1-one] stands under 100 nM; under `CC(C)Oc1cccc2[nH]cc(C(C)CC(=O)N3C4CC5CC3CC(O)(C5)C4)c12` (single isomer, unassigned) [Compound 179, 1-(5-hydroxy-2-azatricyclo[3.3.1.1^3,7]dec-2-yl)-3-[4-(propan-2-yloxy)-1H-indol-3-yl]butan-1-one], over 250 nM; under `CC(C)Oc1cccc2[nH]cc(C(C)CC(=O)N3C4CC5CC3CC(F)(C5)C4)c12` (single isomer, unassigned) [Compound 184, 1-(5-fluoro-2-azatricyclo[3.3.1.1^3,7]dec-2-yl)-3-[4-(propan-2-yloxy)-1H-indol-3-yl]butan-1-one], under 100 nM.
